# Test system: AF/AFL patients
# Experiment: EURIDIS and ADONIS post hoc analysis: adverse events and ECG changes by timing of amiodarone stop
# Format: in vivo, human
# Settings: for QTc-Fridericia > or = 500 msec: unit assumed
# From the text: Methods: In EURIDIS and ADONIS studies mentioned in the article of the New England Journal of Medicine, 357, 10, Sep.
# Results: Dronedarone decreased AF/AFL recurrence compared to placebo (HR=0.64 [95% CI 0.44-0.95], P=0.022) in this subgroup. […] All the results are included in the table 1 below.
# In the table above, “A” means Amiodarone, “D” means” dronedarone, “PI” means Placebo, “n” is the number of patients tested with “PI” or “D”.
# [1] = A stopped more than 2 days before randomization, n = 35
# [2] = A stopped within 2 days before randomization, n = 98
# [3] = No amiodarone treatment before randomization, n = 680
compound,measurement,setting,value
"CCCCc1oc2ccc(NS(C)(=O)=O)cc2c1C(=O)c1ccc(OCCCN(CCCC)CCCC)cc1 [Dronedarone, 2-n-Butyl-3-[4-(3-di-n-butylaminopropoxy)benzoyl]-5-methylsul phonamidobenzofuran]",Bradyarrhythmia (%) (under adverse events with drug discontinuation),[1],0%
same,Bradyarrhythmia (%) (under serious adverse events),[1],0%
same,PR-interval > or = 200 msec and increase > or = 20 msec versus baseline,[1],22.9
same,Rate of Adverse Events with dronedarone discontinuation (%),[1],20.0%
same,Rate of Serious adverse events (%),[1],17.1%
same,QTc-Fridericia > or = 500 msec,[1],14.3%
same,Bradyarrhythmia (%) (under adverse events with drug discontinuation),[2],3.1%
same,Bradyarrhythmia (%) (under serious adverse events),[2],1%
same,PR-interval > or = 200 msec and increase > or = 20 msec versus baseline,[2],25.8
same,Rate of Adverse Events with dronedarone discontinuation (%),[2],8.2%
same,Rate of Serious adverse events (%),[2],15.3%
same,QTc-Fridericia > or = 500 msec,[2],7.9%
same,Bradyarrhythmia (%) (under adverse events with drug discontinuation),[3],0.7%
same,Bradyarrhythmia (%) (under serious adverse events),[3],1.3%
same,PR-interval > or = 200 msec and increase > or = 20 msec versus baseline,[3],28.0
same,Rate of Adverse Events with dronedarone discontinuation (%),[3],9.1%
same,Rate of Serious adverse events (%),[3],13.7%
same,QTc-Fridericia > or = 500 msec,[3],4.4%
same,Tolerability,small patient cohort switched rapidly from A to D,good tolerability

# Source: US20120329867A1 (SANOFI, priority 2010, published 2012)
